We go through four compounds from patent US20070083333A1, “Modeling of systemic inflammatory response to infection” (priority 2003, published 2007).

In assay [1] the test system is irradiated C3H/HeN mice infected with E. coli strain Bort. Briefly: Ethyl pyruvate plus ceftriaxone, survival in immunocompromised infected mouse model. Format: in vivo. The following applies: for Bacterial counts / Status / Status.dead / Time death: one animal per row, listed as EP; for Status: 1 = dead, 0 = alive. The protocol: (§1) Mice were pouched six days and irradiated five days before infection. Eight- to 12-week-old C3H/HeN mice were anesthetized with isofluorane and wiped with alcohol in the area caudal to their ears. Pouches were created at this site by subcutaneous injection of 2-3 ml of air, followed by the subcutaneous injection of 0.2 ml of a 0.5% solution of croton oil in olive oil. Twenty-four hours later, mice were irradiated using a gamma irradiator. Five days after irradiation, animals were infected with E. coli strain Bort by direct injection of the bacterial suspension into the pouches. After infection, animals were treated as described for each individual experiment. Animals were checked daily for signs of pain and distress, including diarrhea, lethargy, ruffled fur, lack of appetite, and poor body condition. Animals were euthanized when they became very lethargic and unable to move when touched.
Mice were pouched and irradiadiated as described above. The mice were assigned to four different groups: (1) ten mice were untreated (control mice); (2) nineteen mice were treated with 0.1 mg/mouse of ceftriaxone (CEF) once every 24 hours […] (saline control mice); (3) twenty mice were treated with 0.1 mg/mouse ceftriaxone and 35 mg/ml ethyl pyruvate once every 24 hours for four days (EP mice); and (4) ten mice were treated as for group (3) and received an additional injection of 35 mg/ml of EP at 30 and 54 hour timepoints (EP 2x mice).

Assay [2] shares this test system. In words: VEGF receptor antagonists (Compounds I and II): survival, bacterial counts, time of euthanasia. The following applies: for Bacterial counts: blood bacterial count of individual animal bled at 40 hours after infection, 100 mg/Kg injected 16 hours after infection, FD given where no count; for Bacterial counts / Time of Death: 100 mg/kg; for Status: individual animal survival status code (1 or 0, not defined; 0 only at 168); for Time of Death: individual animal, time of death/euthanasia (hours after infection), 100 mg/Kg, ceftriaxone 50 ug/mouse at 40 hours. Format: in vivo, mouse. The method, then:
as §1, with “touched. It was previously determined that when mice reach such conditions they will die within 6-8 hours.” for “touched.”
Using the procedure described above, 76 mice were pouched, irradiated (495 rads) and infected (0.2 ml of 0.1 OD 600).
(II) (see WO 98/13354 and WO 00/132651). At 40 hours after infection, animals were bled and injected with the same solutions to which ceftriaxone was added to yield a solution containing 50 ug/mouse. Animals were injected with the solutions (no ceftriaxone) for 2 more days. Blood was used for BC and plasma. Two aliquots of 20 ul and an extra aliquot were prepared and stored at −80.

Assay [3] relates to irradiated (490 rads) C3H/HeN mice with infected subcutaneous pouch. In words: Immunocompromised mouse model of contained infection: ceftriaxone treatment, spleen CFU at death and survival. Format: in vivo. Particulars: Ceftriaxone 0.3 mg/mouse daily. From the text:
In order to test therapies intended at controlling systemic inflammatory response rather than the infection, it is desirable to control the infection to avoid problems that can derive from a high bacterial load. To this end we controlled the infection by using antibiotics. In this experiment, a subcutaneous pouch was induced in C3H/HeN animals. […] At Day 6 after induction of the pouches, mice were infected with 4.5×10^6 CFU/mouse. As animals became sick (as detected by a ruffled fur), each animal was assigned to one of two different groups, i.e. a group to be treated with 0.3 mg/mouse of ceftriaxone and a group to stay untreated. […] Once an animal was assigned to the treated group, it received a daily injection of antibiotic until the animal succumbed to death. […] At death, spleens were removed from the animals, homogenized in PBS, and the CFU determined.
The bacterial counts in the spleens of treated animals are about 3 logs of magnitude lower than in the untreated animals. The conditions employed should therefore be useful for testing therapies to prevent the progression from sepsis to septic shock in the absence of overwhelming bacterial infection.

“And” between values parts separate entries of the source, which are not always exact repeats. Equal entries are not always repeated.

As for `CCOC(=O)C(C)=O` [ethyl pyruvate], the “survival relative to nontreated or CEF-treated controls” value in assay [1] (35 mg/ml ethyl pyruvate with 0.1 mg/mouse ceftriaxone, every 24 hours for four days (EP) or with extra doses at 30 and 54 h (EP 2x)) is on record as “significant survival advantage”. The “Bacterial counts” value in assay [1] (Group 3 (EP mice): 0.1 mg/mouse ceftriaxone and 35 mg/ml ethyl pyruvate once every 24 hours for four days) is 1.0E+04 and 3.0E+04 and 1.2E+05 and 2.0E+05 (3×) and 3.0E+05 (2×) and 1.3E+04 and 2.5E+04 and 3.5E+04 and 6.5E+04 and 7.6E+04 and 8.0E+04 and 1.2E+04 and 2.0E+03 and 1.6E+03 (2×) and 1.6E+04 and 4.0E+04. Also, in assay [1] (Group 3 (EP mice)), the Status is 1 (19×) and 0; the Status.dead entry was “DEAD (19×) and ALIVE”; the Time death was 48 (6×) and 54 (8×) and 56 and 78 and 102 and 168 and 174 (2×). Moreover, in assay [1] (Group 4 (EP 2x mice): as group 3 plus additional 35 mg/ml EP at 30 and 54 hour timepoints), the “Bacterial counts” value is 2.0E+05 and 5.0E+04 (2×) and 3.0E+04 (2×) and 1.0E+04 and 1.7E+03 and 0.0E+00 and 1.0E+03 and 2.4E+03. Moreover, in assay [1] (Group 4 (EP 2x mice)), the Status was 1 (7×) and 0 (3×); the Status.dead entry was “DEAD (7×) and ALIVE (3×)”; the Time death is 48 and 54 and 62 and 72 and 96 and 168 (2×) and 174 (3×).

Regarding `CC(C)(N)c1ccc(-c2nc(Nc3ccc(CCN4CCOCC4)cc3)ncc2C#N)cc1` [Compound I], in assay [2], the Bacterial counts was 1.3E+07 and 4.0E+06 and 3.0E+06 and 2.0E+06 and 1.0E+06 and 3.0E+05 (3×) and 2.0E+05 (2×) and 3.0E+04 and 1.7E+03 and 1.0E+03 and 1.0E+02 (5×) and <100 (7×); the Status was 1 (27×) and 0; the “Time of Death” value was 40 (3×) and 46 (5×) and 48 (4×) and 64 and 88 and 94 and 112 (8×) and 160 and 96 (3×) and 168.

Regarding `CO/N=C(\C(=O)N[C@@H]1C(=O)N2C(C(=O)O)=C(CSc3nc(=O)c(=O)[nH]n3C)CS[C@H]12)c1csc(N)n1` [Ceftriaxone, ceftriaxone], the “CFU/spleen, Average” value in assay [3] (average of treated animals) was determined as 7.01E+05 CFU/spleen. In addition, the CFU/spleen in assay [3] (spleens removed at death, single animals) is 2.60E+04 CFU/spleen and 3.00E+03 CFU/spleen and 8.00E+03 CFU/spleen and 8.00E+05 CFU/spleen (2×) and 1.80E+04 CFU/spleen and 6.00E+02 CFU/spleen and 1.20E+04 CFU/spleen and 2.00E+03 CFU/spleen and 4.00E+04 CFU/spleen and 6.00E+06 CFU/spleen.

`COc1cc2c(Nc3ccc(Br)cc3F)ncnc2cc1OCC1CCN(C)CC1` [Compound II]: in assay [2], the Bacterial counts was 1.0E+09 and 1.0E+07 and 9.0E+06 and 3.0E+06 and 2.0E+06 (3×) and 5.0E+05 and 3.0E+05 (2×) and 5.0E+04 and 3.0E+04 and 1.6E+04 and 2.0E+03 and 1.0E+02 (2×) and <100 (9×); the Status is 1 (23×) and 0 (4×); the “Time of Death” value is 40 (2×) and 46 (4×) and 48 (7×) and 64 (4×) and 160 (3×) and 112 (3×) and 168 (4×).
